Measurements as given in article PMC7114193 (Antiviral Research, 2012).

Experiments:
[1] = molecular target: rhACE2 (Homo sapiens, UniProt Q9BYF1); format: binding
[2] = tested on: spike protein and ACE2 interaction; conditions: cited from earlier work

Sequence of rhACE2 (Q9BYF1 18-740): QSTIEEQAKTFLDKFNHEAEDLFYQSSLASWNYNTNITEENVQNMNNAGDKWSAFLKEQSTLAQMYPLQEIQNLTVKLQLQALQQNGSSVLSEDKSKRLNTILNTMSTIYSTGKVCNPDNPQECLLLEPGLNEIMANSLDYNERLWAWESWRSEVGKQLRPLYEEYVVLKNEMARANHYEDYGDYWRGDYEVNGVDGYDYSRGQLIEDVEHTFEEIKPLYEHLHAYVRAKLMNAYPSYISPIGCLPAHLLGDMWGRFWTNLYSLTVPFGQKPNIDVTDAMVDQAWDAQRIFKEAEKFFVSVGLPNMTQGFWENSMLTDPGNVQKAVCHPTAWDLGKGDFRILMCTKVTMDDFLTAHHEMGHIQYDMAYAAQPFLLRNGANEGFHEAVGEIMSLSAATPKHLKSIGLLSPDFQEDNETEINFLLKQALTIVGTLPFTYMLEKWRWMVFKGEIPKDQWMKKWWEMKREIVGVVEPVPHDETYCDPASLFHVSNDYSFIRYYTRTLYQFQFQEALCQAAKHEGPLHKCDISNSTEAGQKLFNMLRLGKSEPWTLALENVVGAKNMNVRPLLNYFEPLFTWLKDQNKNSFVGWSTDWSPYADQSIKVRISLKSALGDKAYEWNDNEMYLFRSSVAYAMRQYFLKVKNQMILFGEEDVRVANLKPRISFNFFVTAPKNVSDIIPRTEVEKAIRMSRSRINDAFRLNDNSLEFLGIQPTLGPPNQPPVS

Substance	SPR binding to ACE2 (in words) [1]	also measured
ALNSYW [RBD-14a]	–	SPR response [1]: 5 RU
FYTTTGIGYQPY [SP-8]	–	inhibition of spike protein and ACE2 interaction (in words) [2]: inhibitory activity
IGYQPY [RBD-15c]	no interaction observable	–
NYNYKY [RBD-11a]	–	SPR response signal [1]: 5 RU
SYWPLN [RBD-14b]	only weak interaction	SPR response [1]: 7 RU
YDYRYL	No binding was observed	–
YKYDYL	No binding was observed	–
